In brackets after ≈: the same amount, converted by molar mass.
Experiments:
[1] = Schulz et al. (1997); cited from earlier work
[2] = tested on: P. aeruginosa; assay: Killing of logarithmic, stationary and biofilm cultures by bactericidal antimicrobials (colony count); format: cell-based; settings: in words
Experimental: Persister cells in planktonic and biofilm populations are characterized for their antibiotic sensitivity in this example. Several bactericidal antimicrobials were chosen to test the resistance of P. aeruginosa to killing—ofloxacin, a fluoroquinolone; tobramycin, an aminoglycoside; carbenicillin, a β-lactam; and peracetic acid, a disinfectant oxidant (Spoering et al. (2001) J. Bacteriol. 183:6746-6751). Biofilms were grown essentially by the method of Ceri (Ceri et al. (1999) J. Clin. Microbiol. 37:1771-1776) and as described in Brooun et al. (2000) Antimicrob. Agents Chemother. 44:640-646. The device used for biofilm formation is a platform carrying 96 polystyrene pegs that fit in a microtiter plate. Preformed biofilms were incubated in the presence of an antimicrobial agent, and survival was measured after disrupting the biofilms by colony count.
Carbenicillin is a bactericidal antibiotic that, similarly to most β-lactams, only kills rapidly growing cells (Tuomanen et al. (1986) Scand. J. Gastroenterol. Suppl:10-14). Logarithmic state, stationary and biofilm cultures were challenged with carbenicillin.
Unlike carbenicillin, ofloxacin can kill non-growing cells (Brooun et al. (2000) Antimicrob. Agents Chemother. 44:640-646). […] After a 6 hours incubation time with the antibiotic, viability was determined by colony count. […]

[3] = tested on: E. coli K12 overexpressing activating enzyme; assay: MIC, broth microdilution, strains overexpressing activating enzyme; format: cell-based; settings: for MIC: 1 mM IPTG; for susceptibility of strains overexpressing the corresponding activating enzymes: in words
Excerpt: Next, the hits that verify and have reduced activity compared to wild type or no activity against strains deleted in a known or putative enzyme are validated. The rationale is to test the hit against a strain overexpressing the putative activating enzyme. Strains overexpressing activating enzymes have considerably higher susceptibility to prodrugs. It is important to note that conventional antibiotics that inhibit specific targets have increased activity against strains with diminished expression of the target, and decreased activity if the target is overproduced (Schmid, M. B. (2001) New targets and strategies for identification of novel classes of antibiotics. In Antibiotic Development and Resistance. Hughes, D. and Andersson, D. I. (eds). New York: Taylor and Francis, pp. 197-208; Sun, D.e.a. (2001) In 41st Interscience Conference on Antimicrobial Agents and Chemotherapy Chicago: ASM, pp. 77). A prodrug hit has higher activity against a strain overexpressing an activating enzyme, and lower activity against a strain lacking/diminished in an activating enzyme. This behavior of a prodrug hit is the exact opposite from what one expects from a specific antibiotic, and will provide for an excellent preliminary validation of prodrugs. This validation is facilitated by the availability of the ASKA library of E. coli strains overexpressing all known ORFs. The University of Nagoya freely distributes this resource (Saka et al. (2005) DNA Res. 12:63-68). The library contains 4,382 individual E. coli K12 W3110 clones, each carrying a single ORF cloned in an expression vector pCA24N under a pT5/lac promoter. The N-termini carry a his-tag linked to the ORF by a 7 amino acid spacer. The vector carries a CAM resistance marker and a lacl^q gene for a tight control of IPTG-inducible expression.
(§1) The ASKA strains of interest are validated for functional expression of the enzyme. If the protein is not expressed from a given expression vector the ORF will be recloned. A strain overexpressing the activating enzyme from the ASKA library is then tested with the hit compound. If the hit has greater activity against this overexpressing strain as compared to the wild type, this indicates a prodrug. The test is performed in a standard broth microdilution assay for MIC determination. Hits with the lowest wild type MIC are then focused on.
(§2) Cells were tested in a standard broth microdilution assay, inoculating 10^5 cells per well of a microtiter plate in LB broth. Overexpression and deletion strains were compared to the appropriate isogenic wild type. IPTG was added at 1 mM to growth medium. Experiments involving nfnB and nfsA strains were performed under anaerobic conditions.

[4] = tested on: E. coli K12 ΔtolC overexpressing activating enzyme; assay: MIC, broth microdilution, tolC deletion strains (MDR efflux test); format: cell-based
Excerpt: Prodrugs are activated by activating enzymes into reactive molecules that bind to their targets, creating an irreversible sink. This may lead to insensitivity of the overall process to MDR efflux. In order to test this possibility, an E. coli K12 with a deletion in tolC coding for the outer membrane porin that is a component of the transenvelope MDRs was utilized (Li, X. Z et al. (2004) Drugs 64:159-204). This strain is highly sensitive to antibiotics (Tegos et al. (2002) Antimicrob. Agents Chemother. 46:3133-3141). […] The substrate specificity of AcrAB is remarkably broad, and includes essentially all small molecular weight amphipathic compounds. The AcrAB substrates include anions (SDS, fatty acids, bile acids), neutral compounds (macrolides, chloramphenicol, tetracyclines) and cations or compounds that can form cations (acridine, quaternary compound antiseptics, fluoroquinolones). AcrAB can extrude the best natural broad spectrum antibiotics that evolved for good penetration —chloramphenicol and tetracycline; and extrude the best synthetic broad-spectrums, the fluoroquinolones. Indeed, amphipathic antimicrobials that are not an AcrAB substrate are not known.
as §2

[5] = tested on: E. coli K12 Δactivating enzyme; assay: MIC, broth microdilution, strains deleted in activating enzyme; format: cell-based; settings: anaerobic conditions
Experimental: as §2

[6] = tested on: E. coli K12 wt; assay: MIC, standard broth microdilution assay, wild type; format: cell-based; settings: in words; all strains tested
Experimental: as §1, §2

[7] = E. coli K12 nfnB+ (overexpressing), anaerobic conditions
[8] = E. coli K12 nfsA+ (overexpressing), anaerobic conditions
[9] = E. coli K12 ΔtolC nfnB+ (overexpressing), anaerobic conditions
[10] = E. coli K12 ΔtolC nfsA+ (overexpressing), anaerobic conditions

NC[C@H]1O[C@H](O[C@H]2[C@H](O)[C@@H](O[C@H]3O[C@H](CO)[C@@H](O)[C@H](N)[C@H]3O)[C@H](N)C[C@@H]2N)[C@H](N)C[C@@H]1O [Tobramycin, tobramycin]
clinically achievable concentration [1]: 10 µg/mL | killing of logarithmic cells ([2]; logarithmic cells): no logarithmic persisters were detected

NC(=O)c1cc(N2CC2)c([N+](=O)[O-])cc1[N+](=O)[O-] [Dinitroaziridinylbenzamide (CB1954), Dinitroaziridinylbenzamide]
MIC [3, 7]: 3.3 µg/mL (≈ 13.1 µM) | MIC [3, 8]: 6.3 µg/mL (≈ 25 µM) | susceptibility of strains overexpressing the corresponding activating enzymes [3]: significantly increased susceptibilities | MIC [4, 9]: 3.3 µg/mL (≈ 13.1 µM) | MIC [4, 10]: 6.3 µg/mL (≈ 25 µM)

NC(=O)c1cc([N+](=O)[O-])cc([N+](=O)[O-])c1 [3,5-Dinitrobenzamide]
MIC ([5]; E. coli K12 nfnB− (deleted)): >500 µg/mL | MIC ([5]; E. coli K12 nfsA− (deleted)): >500 µg/mL | MIC [3, 7]: 15.6 µg/mL (≈ 73.9 µM) | MIC [3, 8]: 7.8 µg/mL (≈ 36.9 µM) | susceptibility of strains overexpressing the corresponding activating enzymes [3]: significantly increased susceptibilities | MIC [4, 9]: 15.6 µg/mL (≈ 73.9 µM) | MIC [4, 10]: 7.8 µg/mL (≈ 36.9 µM)

CC1COc2c(N3CCN(C)CC3)c(F)cc3c(=O)c(C(=O)O)cn1c23 (stereo not drawn) [ofloxacin]
clinically achievable concentration [1]: 5 µg/mL

CC(=O)OO [Peracetic acid, peracetic acid]
killing of logarithmic, stationary and biofilm cultures ([2]; all three cultures): all cultures were sterilized

Nc1nc(O)ncc1F [5-fluorocytosine, 5-Fluorocytosine]
activity against any strains tested [6]: little activity

CC[C@H]1OC(=O)[C@H](C)[C@@H](O[C@H]2C[C@@](C)(OC)[C@@H](O)[C@H](C)O2)[C@H](C)[C@@H](O[C@@H]2O[C@H](C)C[C@H](N(C)C)[C@H]2O)[C@](C)(O)C[C@@H](C)C(=O)[C@H](C)[C@@H](O)[C@]1(C)O [Erythromycin]
MIC ([3]; E. coli K12 codA+ (overexpressing)): 200 µg/mL (≈ 273 µM) | MIC ([3]; E. coli K12 deoD+ (overexpressing)): 200 µg/mL (≈ 273 µM) | MIC [3, 8]: 200 µg/mL (≈ 273 µM) | MIC ([4]; E. coli K12 ΔtolC codA+ (overexpressing)): 1.56 µg/mL (≈ 2.13 µM) | MIC ([4]; E. coli K12 ΔtolC deoD+ (overexpressing)): 1.56 µg/mL (≈ 2.13 µM) | MIC [4, 9]: 1.56 µg/mL (≈ 2.13 µM) | MIC [4, 10]: 1.56 µg/mL (≈ 2.13 µM)
